# Results taken from ChEMBL document CHEMBL5665443, “Enzyme Inhibitor Single Concentration assay results for EUbOPEN Chemogenomics Library” (2024).
# Tests used:
# [1] = molecular target: Methyl-CpG-binding domain protein 4 (Homo sapiens) (UniProt O95243);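 also: MBD4 activity read as fluorescence at 594 nm from cleavage and release of a quenched duplex DNA oligonucleotide, with APE1 coupled to incise the strand and raise turnover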
# Description: Inhibition of MBD4 by quantifying inhibition of MBD4-mediated cleavage and dissociation of quenched duplex DNA oligonucleotides, measured as fluorescence at 594 nm. To generate a functional strand incision and increase turn-over this assay is coupled to APE1.
# [2] = molecular target: T1, Adenine DNA glycosylase (Homo sapiens) (UniProt Q9UIF7); settings: Hit No;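 also: human MUTYH activity read as 594 nm fluorescence from cleavage and release of a quenched DNA duplex, coupled with APE1 for strand incision, lower signal meaning inhibition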
# T1 sequence (whole entry): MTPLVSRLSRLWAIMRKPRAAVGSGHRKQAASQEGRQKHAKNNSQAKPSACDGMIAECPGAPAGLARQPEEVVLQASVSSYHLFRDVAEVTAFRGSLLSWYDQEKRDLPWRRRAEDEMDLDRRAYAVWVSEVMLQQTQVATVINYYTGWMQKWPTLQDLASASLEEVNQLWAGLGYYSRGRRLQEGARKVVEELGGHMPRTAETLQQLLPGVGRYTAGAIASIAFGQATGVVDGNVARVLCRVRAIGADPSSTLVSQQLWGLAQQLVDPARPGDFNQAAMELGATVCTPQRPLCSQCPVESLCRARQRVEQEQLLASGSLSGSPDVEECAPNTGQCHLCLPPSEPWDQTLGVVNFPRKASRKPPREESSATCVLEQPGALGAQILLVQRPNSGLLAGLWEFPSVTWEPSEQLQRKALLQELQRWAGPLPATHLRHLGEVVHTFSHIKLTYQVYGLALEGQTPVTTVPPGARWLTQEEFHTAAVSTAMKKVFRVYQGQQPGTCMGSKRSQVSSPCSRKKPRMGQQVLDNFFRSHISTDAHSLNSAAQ
# Description: Inhibition of MUTYH by quantifying inhibition of MUTYH-mediated cleavage and dissociation of quenched duplex DNA oligonucleotides, measured as fluorescence at 594 nm. To generate a functional strand incision and increase turn-over this assay is coupled to APE1.
# [3] = molecular target: Endonuclease 8-like 1 (Homo sapiens) (UniProt Q96FI4); settings: Hit No;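 also: fluorescence at 594 nm from quenched duplex DNA oligonucleotides released by NEIL1 cleavage and strand separation, reported as reduction of this enzyme activity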
# Endonuclease 8-like 1 (Homo sapiens), sequence (Q96FI4 whole entry): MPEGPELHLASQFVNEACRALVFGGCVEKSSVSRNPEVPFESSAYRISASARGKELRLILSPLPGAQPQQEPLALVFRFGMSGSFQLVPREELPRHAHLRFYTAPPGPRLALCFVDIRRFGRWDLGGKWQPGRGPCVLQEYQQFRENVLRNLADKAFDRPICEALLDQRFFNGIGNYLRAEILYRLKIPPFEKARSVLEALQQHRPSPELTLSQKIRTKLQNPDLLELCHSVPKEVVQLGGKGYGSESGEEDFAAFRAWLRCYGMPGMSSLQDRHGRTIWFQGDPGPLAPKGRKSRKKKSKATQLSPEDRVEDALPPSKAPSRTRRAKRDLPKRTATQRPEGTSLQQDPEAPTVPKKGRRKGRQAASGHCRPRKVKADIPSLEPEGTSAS
# Description: Inhibition of NEIL1 by quantifying inhibition of NEIL1-mediated cleavage and dissociation of quenched duplex DNA oligonucleotides, measured as fluorescence at 594 nm.
# [4] = molecular target: T2, Endonuclease III-like protein 1 (Homo sapiens) (UniProt P78549); settings: Hit No;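 also: enzyme assay tracking NTHL1 cutting and release of a quenched double-stranded DNA oligo substrate, read as fluorescence at 594 nm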
# T2 sequence (whole entry): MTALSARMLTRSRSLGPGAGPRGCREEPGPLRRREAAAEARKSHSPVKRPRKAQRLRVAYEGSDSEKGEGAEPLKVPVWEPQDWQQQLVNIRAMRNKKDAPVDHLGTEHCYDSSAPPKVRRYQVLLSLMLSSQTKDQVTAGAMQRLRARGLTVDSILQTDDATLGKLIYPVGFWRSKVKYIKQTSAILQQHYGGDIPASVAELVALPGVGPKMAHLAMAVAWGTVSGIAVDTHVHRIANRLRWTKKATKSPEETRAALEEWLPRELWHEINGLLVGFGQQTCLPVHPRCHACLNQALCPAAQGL
# Description: Inhibition of NTHL1 by quantifying inhibition of NTHL1-mediated cleavage and dissociation of quenched duplex DNA oligonucleotides, measured as fluorescence at 594 nm.
# [5] = molecular target: N-glycosylase/DNA lyase (Homo sapiens) (UniProt O15527);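 also: OGG1 cleavage of a quenched duplex DNA oligonucleotide, coupled to APE1 for strand incision, read as fluorescence at 594 nm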
# N-glycosylase/DNA lyase (Homo sapiens), sequence (O15527 whole entry): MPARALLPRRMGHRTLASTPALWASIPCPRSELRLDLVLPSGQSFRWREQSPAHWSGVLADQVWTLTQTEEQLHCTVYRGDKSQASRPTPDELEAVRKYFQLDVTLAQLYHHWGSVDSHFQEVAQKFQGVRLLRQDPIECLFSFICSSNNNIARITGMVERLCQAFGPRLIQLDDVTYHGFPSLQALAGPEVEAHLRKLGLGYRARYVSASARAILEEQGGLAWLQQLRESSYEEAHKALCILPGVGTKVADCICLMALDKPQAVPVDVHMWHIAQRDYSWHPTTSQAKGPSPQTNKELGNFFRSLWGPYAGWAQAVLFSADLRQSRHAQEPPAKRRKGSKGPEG
# Description: Inhibition of OGG1 by quantifying inhibition of OGG1-mediated cleavage and dissociation of quenched duplex DNA oligonucleotides, measured as fluorescence at 594 nm. To generate a functional strand incision and increase turn-over this assay is coupled to APE1.
# [6] = molecular target: T3, Single-strand selective monofunctional uracil DNA glycosylase (Homo sapiens) (UniProt Q53HV7); settings: Hit No;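 also: enzymatic SMUG1 assay coupled with APE1, reading fluorescence at 594 nm released when a quenched double-stranded DNA oligonucleotide substrate is cleaved and separated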
# T3 sequence (whole entry): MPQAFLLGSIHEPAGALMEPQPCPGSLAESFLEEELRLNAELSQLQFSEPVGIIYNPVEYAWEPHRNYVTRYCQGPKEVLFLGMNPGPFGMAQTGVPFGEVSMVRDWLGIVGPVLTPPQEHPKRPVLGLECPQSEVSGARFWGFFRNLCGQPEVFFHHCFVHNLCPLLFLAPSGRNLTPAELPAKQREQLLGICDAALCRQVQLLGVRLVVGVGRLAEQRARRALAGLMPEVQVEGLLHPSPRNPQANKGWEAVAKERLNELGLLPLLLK
# Description: Inhibition of SMUG1 by quantifying inhibition of SMUG1-mediated cleavage and dissociation of quenched duplex DNA oligonucleotides, measured as fluorescence at 594 nm. To generate a functional strand incision and increase turn-over this assay is coupled to APE1.
# [7] = molecular target: G/T mismatch-specific thymine DNA glycosylase (Homo sapiens) (UniProt Q13569);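 also: human TDG cleavage of quenched duplex DNA oligonucleotides coupled to APE1, strand release read as fluorescence at 594 nm, inhibition of TDG activity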
# G/T mismatch-specific thymine DNA glycosylase (Homo sapiens), sequence (Q13569 whole entry): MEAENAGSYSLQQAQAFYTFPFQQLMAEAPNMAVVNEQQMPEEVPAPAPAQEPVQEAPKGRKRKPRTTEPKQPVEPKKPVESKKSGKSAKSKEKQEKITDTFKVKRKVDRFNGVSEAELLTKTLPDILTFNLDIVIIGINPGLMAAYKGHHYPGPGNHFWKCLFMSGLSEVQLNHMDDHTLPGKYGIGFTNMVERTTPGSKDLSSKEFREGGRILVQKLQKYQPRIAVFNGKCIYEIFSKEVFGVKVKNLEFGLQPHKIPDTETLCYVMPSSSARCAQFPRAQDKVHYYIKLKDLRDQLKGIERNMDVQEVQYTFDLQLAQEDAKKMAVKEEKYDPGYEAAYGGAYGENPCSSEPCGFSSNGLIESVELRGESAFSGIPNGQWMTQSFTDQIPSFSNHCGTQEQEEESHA
# Description: Inhibition of TDG by quantifying inhibition of TDG-mediated cleavage and dissociation of quenched duplex DNA oligonucleotides, measured as fluorescence at 594 nm. To generate a functional strand incision and increase turn-over this assay is coupled to APE1.
# [8] = molecular target: Uracil-DNA glycosylase (Homo sapiens) (UniProt P13051); settings: Hit No;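 also: UNG excision on a quenched double-stranded DNA oligo probe, with APE1 added for strand incision and turnover, read as fluorescence at 594 nm as strands separate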
# Uracil-DNA glycosylase (Homo sapiens), sequence (P13051 whole entry): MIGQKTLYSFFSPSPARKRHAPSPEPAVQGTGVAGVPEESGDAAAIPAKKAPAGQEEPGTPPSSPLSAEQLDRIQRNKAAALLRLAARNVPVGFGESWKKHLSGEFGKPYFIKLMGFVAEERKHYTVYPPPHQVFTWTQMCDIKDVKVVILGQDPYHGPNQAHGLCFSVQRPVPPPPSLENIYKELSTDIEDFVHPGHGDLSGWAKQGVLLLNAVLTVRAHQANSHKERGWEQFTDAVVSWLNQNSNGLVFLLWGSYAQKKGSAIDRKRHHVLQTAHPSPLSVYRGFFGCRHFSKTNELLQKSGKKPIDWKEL
# Description: Inhibition of UNG by quantifying inhibition of UNG-mediated cleavage and dissociation of quenched duplex DNA oligonucleotides, measured as fluorescence at 594 nm. To generate a functional strand incision and increase turn-over this assay is coupled to APE1.
# [9] = molecular target: T4, Endonuclease 8-like 2 (Homo sapiens) (UniProt Q969S2); settings: Hit No;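 also: fluorescence at 594 nm reports NEIL2 cutting and release of a quenched double-stranded DNA oligo substrate, reduced signal read as inhibition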
# T4 sequence (whole entry): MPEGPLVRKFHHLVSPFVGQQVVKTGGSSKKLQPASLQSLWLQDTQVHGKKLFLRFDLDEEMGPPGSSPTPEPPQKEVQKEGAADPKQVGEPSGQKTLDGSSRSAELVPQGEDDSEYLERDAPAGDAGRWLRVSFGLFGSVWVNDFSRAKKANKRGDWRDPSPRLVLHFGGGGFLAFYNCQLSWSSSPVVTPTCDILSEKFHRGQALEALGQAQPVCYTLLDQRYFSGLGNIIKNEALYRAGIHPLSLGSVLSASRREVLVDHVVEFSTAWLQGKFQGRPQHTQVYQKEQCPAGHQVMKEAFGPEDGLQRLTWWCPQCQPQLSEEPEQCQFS
# Description: Inhibition of NEIL2 by quantifying inhibition of NEIL2-mediated cleavage and dissociation of quenched duplex DNA oligonucleotides, measured as fluorescence at 594 nm.
# [10] = Compound Concentration 10.0 uM, Hit No
# [11] = Compound Concentration 1.0 uM, Hit No
# [12] = Compound Concentration 10.0 uM, Hit Yes
# Methyl-CpG-binding domain protein 4 (Homo sapiens), sequence (O95243 whole entry, the tested form may be a part): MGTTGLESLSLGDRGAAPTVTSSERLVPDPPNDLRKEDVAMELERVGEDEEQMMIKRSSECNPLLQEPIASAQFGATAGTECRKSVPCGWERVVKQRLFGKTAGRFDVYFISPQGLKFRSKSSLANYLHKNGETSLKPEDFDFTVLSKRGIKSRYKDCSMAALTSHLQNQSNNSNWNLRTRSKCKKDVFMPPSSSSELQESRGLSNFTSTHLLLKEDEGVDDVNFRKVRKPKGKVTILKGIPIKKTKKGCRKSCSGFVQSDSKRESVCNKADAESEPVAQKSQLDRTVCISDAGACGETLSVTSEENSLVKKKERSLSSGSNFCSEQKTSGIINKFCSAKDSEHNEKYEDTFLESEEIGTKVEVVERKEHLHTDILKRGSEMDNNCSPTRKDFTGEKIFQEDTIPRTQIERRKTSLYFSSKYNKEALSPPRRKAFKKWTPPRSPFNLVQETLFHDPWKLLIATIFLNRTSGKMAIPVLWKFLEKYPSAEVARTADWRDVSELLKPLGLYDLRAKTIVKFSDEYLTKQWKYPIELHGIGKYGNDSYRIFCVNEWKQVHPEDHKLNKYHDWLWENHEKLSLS
Compound,"inhibition [1, 10] [%]",inhibition ([2]; Compound Concentration 10.0 uM) [%],inhibition ([3]; Compound Concentration 10.0 uM) [%],inhibition ([4]; Compound Concentration 10.0 uM) [%],"inhibition [5, 10] [%]",inhibition ([6]; Compound Concentration 10.0 uM) [%],"inhibition [7, 10] [%]",inhibition ([8]; Compound Concentration 10.0 uM) [%],"inhibition [1, 11] [%]",inhibition ([2]; Compound Concentration 1.0 uM) [%],inhibition ([4]; Compound Concentration 1.0 uM) [%],"inhibition [5, 11] [%]",inhibition ([6]; Compound Concentration 1.0 uM) [%],"inhibition [7, 11] [%]",inhibition ([8]; Compound Concentration 1.0 uM) [%],further results
O=C(NCc1ccccc1)c1ccc(S(=O)(=O)NCc2ccccc2)cc1,-9.13,27.8,-2.64,-8.98,32.2,24.3,39,3.04,–,–,–,–,–,–,–,–
CNC(=O)Nc1ccc2c(c1)CC[C@@]21OC(=O)N(CC(=O)N(Cc2ccc(F)cc2)[C@@H](C)C(F)(F)F)C1=O,–,–,–,–,–,–,–,–,58.8,0.168,-7.2,-4.69,13.6,100,5.87,inhibition ([3]; Compound Concentration 1.0 uM): -8.77%
CCOC(=O)N1CCC(CN(Cc2ccc(Cl)cc2)Cc2ccc([N+](=O)[O-])s2)C1 (stereo not drawn),55.4,-8.96,–,7.92,16.5,16.2,97.5,-1.49,–,–,–,–,–,–,–,inhibition ([9]; Compound Concentration 10.0 uM): -4.57%
CN(C)C(=O)/C(C#N)=C/c1ccc(-c2nc3cnc4[nH]ccc4c3n2C2CCCCC2)o1,–,–,–,–,–,–,–,–,2.33,-2.18,-5.49,10.1,29.1,70.6,8.33,inhibition ([9]; Compound Concentration 1.0 uM): -0.572%
c1ccc(-c2oc3ncnc(NC[C@@H]4CCCO4)c3c2-c2ccccc2)cc1,–,–,–,–,–,–,–,–,18.1,3.16,7.06,6.47,21.6,35.9,4.04,inhibition ([3]; Compound Concentration 1.0 uM): -7.66%
COc1cc(N(C)c2ccnc3ccc(C(F)(F)F)cc23)cc(OC)c1OC,5.39,-1.88,4.23,2.18,1.25,13.4,33.1,1.59,–,–,–,–,–,–,–,–
CC(C)(O)c1ccc(N2Cc3c(ccnc3-c3ccc(F)cc3OCC(F)(F)F)C2=O)cc1,–,–,–,–,–,–,–,–,55.3,-6.44,-1.95,-2.43,2.79,51.2,3.14,inhibition ([3]; Compound Concentration 1.0 uM): -3.02%
CC(=O)N1CCC(c2ccc(C(=O)NC(=N)N)cc2C(F)(F)F)CC1,58.8,0.114,–,5.94,3.38,16.4,47.6,3.89,–,–,–,–,–,–,–,inhibition ([9]; Compound Concentration 10.0 uM): -0.744%
Cc1cc(OC2CCS(=O)(=O)CC2)cc(C)c1-c1cccc(COc2ccc(CCC(=O)O)c(F)c2)c1,58.2,3.94,–,-0.63,48.4,12.1,45.8,3.54,–,–,–,–,–,–,–,inhibition ([9]; Compound Concentration 10.0 uM): -9.42%
CC(C)C(=O)N1CCC(c2cn(C)c3ncc(NC(=O)c4cccc(C#N)c4)c(C(F)(F)F)c23)CC1,55.2,7.16,–,9.89,7.16,26.5,58.4,5.34,–,–,–,–,–,–,–,inhibition ([9]; Compound Concentration 10.0 uM): -3.04%
CN(C)c1ncnc(-c2ccc3nc(Nc4cc(CN5CCN(C(=O)CC(F)(F)F)CC5)ccn4)[nH]c3c2)c1Cl,18,-7.96,–,-0.841,9.13,12.7,65,1.3,–,–,–,–,–,–,–,inhibition ([9]; Compound Concentration 10.0 uM): -5.65%
CN(C)CCN(Cc1ccc(-c2ccc(CNCCc3ccccc3)cc2)cc1)C(=O)CCC1CCCC1,–,93.4,4.6,8,3.9,-6.4,–,1.96,–,–,–,–,–,–,–,"inhibition [1, 12]: 78.7%; inhibition [7, 12]: 80.3%"
Cc1nccc(COC(=O)N2C[C@@H]3[C@@H](CNC(=O)c4ccc5[nH]nnc5c4)[C@@H]3C2)n1,55.9,10.4,–,0.685,-5.03,19.9,59.6,1.28,–,–,–,–,–,–,–,–
Cc1nc(NC(=O)N2CCC[C@H]2C(N)=O)sc1-c1ccnc(C(C)(C)C(F)(F)F)c1,-5.03,6.32,–,12.6,12.9,16.5,38,2.95,–,–,–,–,–,–,–,–
CC(C)(C)c1ccc(C(=O)Nc2cn3cc(-n4ccnc4)ccc3n2)cc1,1.23,6.44,-0.391,-0.61,22.7,16.9,51.5,4.09,–,–,–,–,–,–,–,–
COC[C@H](NC(=O)c1ccn(S(C)(=O)=O)c1)C(=O)Nc1nc(-c2cccc(-c3ccn(C)n3)c2)cs1,–,–,–,–,–,–,–,–,43.1,2.68,-3.92,-7.59,16.9,48.2,4.22,–
CN(C)C(=O)Cn1cc(-c2ccc(-c3nnc4ccccn34)cc2)cn1,–,–,–,–,–,–,–,–,7.42,27.4,-9.68,3.29,22.7,–,2.39,"inhibition ([3]; Compound Concentration 1.0 uM): -1.84%; inhibition ([7]; Compound Concentration 1.0 uM, Hit Yes): 100%"
C[C@@H]1CN(c2cc(-c3n[nH]c4ccc(OC5(C)CC5)cc34)ncn2)C[C@H](C)O1,64.1,9.89,-1.5,2,-2.23,18,98.4,3.96,12.4,-7.22,-1.31,12.9,23.1,48.1,7.33,inhibition ([3]; Compound Concentration 1.0 uM): -2.64%
COCCOc1nc(-c2ccc(Cl)nc2)nc2c1CN(C(=O)c1ncn3ccccc13)CC2,–,–,–,–,–,–,–,–,67.8,-6.39,-3.92,-1.84,8.24,39.9,-0.22,inhibition ([3]; Compound Concentration 1.0 uM): -3.17%
COc1ccc(OC(=O)N(CC(=O)O)Cc2ccc(OCCc3nc(-c4ccccc4)oc3C)cc2)cc1,67.6,29.2,–,5.94,27,20.2,53.7,3.56,–,–,–,–,–,–,–,–
CCOCCn1cc(C(=O)Nc2ccc(-n3nc(-c4cccnc4)cc3C(F)(F)F)cn2)ccc1=O,54.1,-6.66,-4.68,0.685,3.33,18.6,35.4,1.33,–,–,–,–,–,–,–,–
CN(C)C(=O)N1CC[C@H](NC2=Nc3cc(F)ccc3N(CC(F)F)c3ccc(Cl)cc32)C1,-7.39,36.6,-0.787,-2.7,-5.59,19.6,38.4,6.61,–,–,–,–,–,–,–,–
C[C@H](CCOc1cccc(CC(=O)O)c1)N(Cc1cccc(C(F)(F)F)c1Cl)CC(c1ccccc1)c1ccccc1,61.9,-7.97,-4.38,11.9,–,19,52,0.574,–,–,–,–,–,–,–,"inhibition [5, 12]: 103%"
